Test results: ChEMBL document CHEMBL5465560, “Selectivity Literature for EUbOPEN Chemogenomic Library” (2024)

Tests used:
[1] = molecular target: Casein kinase I isoform epsilon (Homo sapiens, UniProt P49674); test: Selectivity interaction (KinomeScan (DiscoverX)) EUB0000229b CSNK1E; settings: at 10 µM
[2] = molecular target: T1, Ephrin type-A receptor 1 (Homo sapiens) (UniProt P21709); test: Selectivity interaction (KinomeScan (DiscoverX)) EUB0000595a EPHA1; settings: at 10 µM
T1 sequence (whole entry): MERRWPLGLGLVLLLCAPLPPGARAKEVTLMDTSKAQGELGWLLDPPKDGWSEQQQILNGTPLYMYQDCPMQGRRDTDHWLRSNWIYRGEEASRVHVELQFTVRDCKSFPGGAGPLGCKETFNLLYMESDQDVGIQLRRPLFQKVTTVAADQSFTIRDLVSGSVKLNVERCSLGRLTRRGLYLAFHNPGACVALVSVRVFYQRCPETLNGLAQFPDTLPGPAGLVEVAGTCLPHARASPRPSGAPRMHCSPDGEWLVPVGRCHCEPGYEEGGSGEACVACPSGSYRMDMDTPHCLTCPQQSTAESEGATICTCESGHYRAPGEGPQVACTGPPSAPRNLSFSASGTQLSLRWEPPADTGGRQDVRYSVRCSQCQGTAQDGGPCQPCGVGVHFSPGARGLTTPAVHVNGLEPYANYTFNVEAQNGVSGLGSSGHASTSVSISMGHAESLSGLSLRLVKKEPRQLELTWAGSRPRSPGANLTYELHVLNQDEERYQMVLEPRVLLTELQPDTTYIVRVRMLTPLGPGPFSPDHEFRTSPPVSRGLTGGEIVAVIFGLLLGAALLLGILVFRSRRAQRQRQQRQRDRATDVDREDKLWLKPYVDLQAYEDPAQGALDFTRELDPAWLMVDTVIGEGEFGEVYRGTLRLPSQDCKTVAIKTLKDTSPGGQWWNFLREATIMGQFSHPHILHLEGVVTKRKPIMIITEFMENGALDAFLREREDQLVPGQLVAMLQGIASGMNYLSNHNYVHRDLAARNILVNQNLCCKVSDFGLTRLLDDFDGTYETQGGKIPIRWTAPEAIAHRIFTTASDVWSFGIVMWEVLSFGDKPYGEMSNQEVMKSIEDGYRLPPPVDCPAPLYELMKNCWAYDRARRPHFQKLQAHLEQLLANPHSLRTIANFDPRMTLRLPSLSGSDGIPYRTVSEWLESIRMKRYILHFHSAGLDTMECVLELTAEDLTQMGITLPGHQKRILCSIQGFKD

[3] = molecular target: Serine/threonine-protein kinase Nek7 (Homo sapiens) (UniProt Q8TDX7); test: Selectivity interaction (Kinase panel (DSF assay)) EUB0001559a NEK7
Chain of Serine/threonine-protein kinase Nek7 (Homo sapiens) (Q8TDX7 whole entry, looked up): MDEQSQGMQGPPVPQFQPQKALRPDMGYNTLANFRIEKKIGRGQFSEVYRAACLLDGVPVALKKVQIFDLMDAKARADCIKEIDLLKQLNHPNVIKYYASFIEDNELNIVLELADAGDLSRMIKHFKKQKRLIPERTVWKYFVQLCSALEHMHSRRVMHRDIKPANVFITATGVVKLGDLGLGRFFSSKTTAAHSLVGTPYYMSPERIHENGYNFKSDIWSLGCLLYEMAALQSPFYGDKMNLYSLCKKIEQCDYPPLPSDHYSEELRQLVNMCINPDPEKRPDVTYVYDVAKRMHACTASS

[4] = molecular target: Glycogen synthase kinase-3 beta (Homo sapiens, UniProt P49841); test: Selectivity interaction (KinomeScan (DiscoverX)) EUB0000695a GSK3B; settings: at 100 nM
Chain of Glycogen synthase kinase-3 beta (P49841 whole entry, looked up): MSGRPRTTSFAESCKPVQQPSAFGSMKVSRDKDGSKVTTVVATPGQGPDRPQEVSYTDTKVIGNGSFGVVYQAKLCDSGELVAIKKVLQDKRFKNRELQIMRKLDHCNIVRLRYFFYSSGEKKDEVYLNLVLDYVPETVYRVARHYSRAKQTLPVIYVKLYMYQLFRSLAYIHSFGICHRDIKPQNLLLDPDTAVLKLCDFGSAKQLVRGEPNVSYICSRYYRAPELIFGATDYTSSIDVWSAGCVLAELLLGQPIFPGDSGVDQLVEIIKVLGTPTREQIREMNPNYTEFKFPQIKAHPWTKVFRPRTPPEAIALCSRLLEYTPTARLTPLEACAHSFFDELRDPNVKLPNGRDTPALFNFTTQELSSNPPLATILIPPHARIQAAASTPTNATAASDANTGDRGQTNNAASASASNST

[5] = Selectivity interaction (KinomeScan (DiscoverX)) EUB0001079a CDK2H; settings: at 1 µM
[6] = molecular target: T2, Homeodomain-interacting protein kinase 4 (Homo sapiens) (UniProt Q8NE63); test: Selectivity interaction (Kinase panel (Z-LYTE Assay)) EUB0001632a HIPK4; settings: at 10 µM
T2 sequence (whole entry): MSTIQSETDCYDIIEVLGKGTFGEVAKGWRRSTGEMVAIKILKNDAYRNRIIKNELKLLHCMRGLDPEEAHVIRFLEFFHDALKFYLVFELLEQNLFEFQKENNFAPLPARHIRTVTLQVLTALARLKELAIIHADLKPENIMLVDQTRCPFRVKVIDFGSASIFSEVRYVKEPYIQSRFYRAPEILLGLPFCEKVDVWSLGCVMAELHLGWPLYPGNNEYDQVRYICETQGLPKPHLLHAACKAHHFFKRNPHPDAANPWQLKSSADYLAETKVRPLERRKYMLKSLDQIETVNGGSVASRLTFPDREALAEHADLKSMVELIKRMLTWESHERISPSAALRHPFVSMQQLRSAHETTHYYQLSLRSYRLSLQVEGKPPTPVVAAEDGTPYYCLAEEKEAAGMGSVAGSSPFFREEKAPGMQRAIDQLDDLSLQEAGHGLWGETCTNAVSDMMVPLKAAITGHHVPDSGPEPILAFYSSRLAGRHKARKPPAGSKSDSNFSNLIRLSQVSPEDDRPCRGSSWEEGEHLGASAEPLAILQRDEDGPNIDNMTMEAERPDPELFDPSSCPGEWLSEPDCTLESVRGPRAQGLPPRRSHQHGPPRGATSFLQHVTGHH

[7] = molecular target: T3, Calcium/calmodulin-dependent protein kinase type IV (Homo sapiens) (UniProt Q16566); test: Selectivity interaction (KinomeScan (DiscoverX)) EUB0000666a CAMK4; settings: at 10 µM
T3 sequence (whole entry): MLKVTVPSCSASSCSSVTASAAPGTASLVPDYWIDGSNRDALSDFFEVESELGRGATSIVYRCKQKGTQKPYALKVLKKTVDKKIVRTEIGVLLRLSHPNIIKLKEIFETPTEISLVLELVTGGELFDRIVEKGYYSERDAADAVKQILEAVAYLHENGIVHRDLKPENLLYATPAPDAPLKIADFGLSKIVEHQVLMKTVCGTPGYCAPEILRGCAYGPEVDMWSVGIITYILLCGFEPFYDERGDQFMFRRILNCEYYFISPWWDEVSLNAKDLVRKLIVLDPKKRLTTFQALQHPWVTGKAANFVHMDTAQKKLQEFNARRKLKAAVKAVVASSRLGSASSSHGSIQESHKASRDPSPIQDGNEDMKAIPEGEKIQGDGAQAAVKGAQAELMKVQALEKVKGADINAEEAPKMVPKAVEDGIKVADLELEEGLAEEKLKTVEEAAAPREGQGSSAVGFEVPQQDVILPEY

[8] = molecular target: Histone-lysine N-methyltransferase SETDB1 (Homo sapiens) (UniProt Q15047); test: Selectivity interaction (Transferase panel (protein, RNA, and DNA methyltransferases. and EP300 (acetyltransferase))) EUB0000270b SETDB1
[9] = molecular target: Calcium/calmodulin-dependent protein kinase type II subunit delta (Homo sapiens) (UniProt Q13557); test: Selectivity interaction (KinomeScan (DiscoverX)) EUB0001049a CAMK2D; settings: at 1 µM
Chain of Calcium/calmodulin-dependent protein kinase type II subunit delta (Homo sapiens) (Q13557 whole entry): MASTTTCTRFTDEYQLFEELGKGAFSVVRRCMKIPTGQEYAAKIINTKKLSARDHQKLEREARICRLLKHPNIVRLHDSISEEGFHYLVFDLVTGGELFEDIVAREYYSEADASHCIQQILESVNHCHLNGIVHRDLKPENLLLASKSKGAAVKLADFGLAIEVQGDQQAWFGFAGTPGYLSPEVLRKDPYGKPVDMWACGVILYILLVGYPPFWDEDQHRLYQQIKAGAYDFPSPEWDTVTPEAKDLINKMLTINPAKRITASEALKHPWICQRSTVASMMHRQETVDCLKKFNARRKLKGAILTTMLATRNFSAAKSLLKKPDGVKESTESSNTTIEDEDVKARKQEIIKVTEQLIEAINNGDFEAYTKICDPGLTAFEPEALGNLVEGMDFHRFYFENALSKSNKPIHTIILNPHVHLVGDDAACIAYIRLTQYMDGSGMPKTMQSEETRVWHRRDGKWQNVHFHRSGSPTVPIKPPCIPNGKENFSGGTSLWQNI

[10] = molecular target: Hepatocyte growth factor receptor (Homo sapiens, UniProt P08581); test: Selectivity interaction (Millipore kinase profiler) EUB0000124b MET; settings: at 10 µM
Chain of Hepatocyte growth factor receptor (P08581 whole entry): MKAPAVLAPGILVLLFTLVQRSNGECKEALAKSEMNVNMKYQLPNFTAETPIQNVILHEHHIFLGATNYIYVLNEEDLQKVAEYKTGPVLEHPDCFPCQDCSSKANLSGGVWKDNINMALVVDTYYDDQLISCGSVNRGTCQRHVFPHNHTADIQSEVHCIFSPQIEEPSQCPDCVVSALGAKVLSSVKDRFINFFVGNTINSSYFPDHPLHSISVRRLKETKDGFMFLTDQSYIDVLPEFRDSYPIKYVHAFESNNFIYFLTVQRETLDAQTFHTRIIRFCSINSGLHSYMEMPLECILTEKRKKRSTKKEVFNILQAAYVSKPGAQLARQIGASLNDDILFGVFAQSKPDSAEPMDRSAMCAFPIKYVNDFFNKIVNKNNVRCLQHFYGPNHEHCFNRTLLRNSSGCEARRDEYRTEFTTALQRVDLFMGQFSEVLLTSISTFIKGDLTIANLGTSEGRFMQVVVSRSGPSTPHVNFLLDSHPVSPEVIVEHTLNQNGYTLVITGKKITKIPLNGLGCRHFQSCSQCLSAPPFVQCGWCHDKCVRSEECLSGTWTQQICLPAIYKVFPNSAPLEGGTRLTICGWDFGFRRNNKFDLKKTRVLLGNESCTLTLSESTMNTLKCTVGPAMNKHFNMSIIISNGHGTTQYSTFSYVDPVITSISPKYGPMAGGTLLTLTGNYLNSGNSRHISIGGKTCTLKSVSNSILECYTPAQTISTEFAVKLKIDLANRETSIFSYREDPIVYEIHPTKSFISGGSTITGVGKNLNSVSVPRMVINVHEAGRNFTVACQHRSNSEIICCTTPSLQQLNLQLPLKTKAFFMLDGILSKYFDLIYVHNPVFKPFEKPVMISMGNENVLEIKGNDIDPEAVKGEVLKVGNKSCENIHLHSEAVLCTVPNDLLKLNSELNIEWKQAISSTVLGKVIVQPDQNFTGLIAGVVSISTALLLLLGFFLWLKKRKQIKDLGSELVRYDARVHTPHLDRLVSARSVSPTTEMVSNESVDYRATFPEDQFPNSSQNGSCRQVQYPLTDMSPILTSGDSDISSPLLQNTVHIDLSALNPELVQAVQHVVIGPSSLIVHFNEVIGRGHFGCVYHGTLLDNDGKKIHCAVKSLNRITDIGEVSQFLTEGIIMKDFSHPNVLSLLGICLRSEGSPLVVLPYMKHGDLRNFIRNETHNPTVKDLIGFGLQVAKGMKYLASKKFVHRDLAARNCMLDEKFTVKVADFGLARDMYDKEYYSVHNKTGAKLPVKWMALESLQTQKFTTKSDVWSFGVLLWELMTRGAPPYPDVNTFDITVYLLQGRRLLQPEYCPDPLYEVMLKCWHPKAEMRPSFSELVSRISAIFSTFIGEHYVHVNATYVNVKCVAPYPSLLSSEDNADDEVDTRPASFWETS

[11] = molecular target: cAMP-dependent protein kinase catalytic subunit alpha (Homo sapiens, UniProt P17612); settings: at 10 µM

Chain of Casein kinase I isoform epsilon (P49674 whole entry, looked up, canonical isoform): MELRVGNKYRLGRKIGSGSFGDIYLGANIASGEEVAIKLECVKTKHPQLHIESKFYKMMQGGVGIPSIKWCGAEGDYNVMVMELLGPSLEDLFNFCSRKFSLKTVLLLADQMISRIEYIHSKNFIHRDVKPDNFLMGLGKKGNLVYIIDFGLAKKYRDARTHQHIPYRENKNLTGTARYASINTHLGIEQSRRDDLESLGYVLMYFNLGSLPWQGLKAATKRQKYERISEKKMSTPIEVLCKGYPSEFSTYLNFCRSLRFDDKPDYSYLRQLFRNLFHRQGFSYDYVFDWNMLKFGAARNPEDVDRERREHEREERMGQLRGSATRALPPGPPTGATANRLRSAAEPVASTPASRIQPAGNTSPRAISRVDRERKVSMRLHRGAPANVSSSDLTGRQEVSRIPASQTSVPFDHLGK

## COc1cc(N(C)c2ccnc3ccc(C(F)(F)F)cc23)cc(OC)c1OC
[1]
  % binding: 54%

## COCC(=O)NC/C=C/c1ccc2ncnc(Nc3ccc(Oc4ccc(C)nc4)c(C)c3)c2c1 [CP-724714]
[2]
  % of control: 88%

## CN(C(=O)c1cnn2cccnc12)c1cc2c(cc1N1CCOCC1)C(=O)N(C[C@@H](F)C(C)(C)O)C2
[3]
  dTM: 0.5 K

## Cc1cc(F)c(C(=O)Nc2cccc(-c3nncn3C(C)C)n2)cc1-n1cnc(C2CC2)c1
[4]
  % of control: 100%

## Nc1cnc(N2CCc3cc(S(=O)(=O)Nc4c(F)cc(Cl)cc4F)cc(N4CCCC4=O)c32)nc1 [TP-020n]
[5]
  % of control: 100%

## Cn1cc(-n2cnc3c(NCc4nc5cc(Cl)c(Cl)cc5[nH]4)nc(N4CCOCC4)nc32)cn1
[6]
  % of control: 6.45%

## O=C(NOC[C@H](O)CO)c1ccc(F)c(F)c1Nc1ccc(I)cc1F
[7]
  % of control: 100%

## Cc1cc(CN)cc(C)c1-c1ncn(C)c1-c1cncn1C
[8]; at 1 µM
  % activity: > 90%
[8]; at 10 µM
  % activity: > 80%

## COc1cc(Nc2nc(C)cc(-c3cnn4nc(OC)ccc34)n2)cc(C(F)(F)F)c1
[9]
  % of control: 100%

## CC(=O)Nc1cccc(-n2c(=O)n(C3CC3)c(=O)c3c(Nc4ccc(I)cc4F)n(C)c(=O)c(C)c32)c1
[10]
  % of control: 150%

## CCN(CC)CCCCNc1ncc2cc(-c3cc(OC)cc(OC)c3)c(NC(=O)NC(C)(C)C)nc2n1
[11]
  % of control: 100%
